Reference: US11760717B2, “Resin composition and fluidity improvement method” (Osaka Gas Chemicals Co., Ltd., priority 2020, dated 2023)

How the values were obtained:
[1] = 5% mass reduction temperature (TG-DTA); assay type: physicochemical; conditions: nitrogen atmosphere, 50 to 400° C., heating rate 10° C./min
Protocol: (5% Mass Reduction Temperature)
The temperature, at which the mass of the sample is reduced by 5% by mass, was measured using a Thermogravimeter-Differential Thermal Analyzer (TG-DTA) (manufactured by PerkinElmer, Inc., “TGA-4000”) in a nitrogen atmosphere, under the condition of a measurement temperature range of 50 to 400° C. with a heating rate of 10° C./min.

[2] = Visual confirmation of extruded thread shaped sample (compatibility of resin and additive); assay type: physicochemical; conditions: thread shaped sample extruded from the resin composition, visually confirmed
Protocol: When a thread shaped sample obtained by extruding the resin composition was visually confirmed, the resin and the additive were compatible with each other without becoming cloudy in each of samples.
For each of Examples, the PA66 as a resin and AAD-FL as an additive were kneaded at a ratio shown in Table 3 to prepare a resin composition. Kneading was performed using a twin-screw extruder (manufactured by Parker Corporation, “HK25D”, L/D=41, screw diameter: 25 mm) under the conditions of a temperature of 270° C., a screw rotation speed of 150 rpm, and a discharge amount of 6 kg/hour. When a thread shaped sample obtained by extruding the resin composition was visually confirmed, the resin and the additive were compatible with each other without becoming cloudy in each of samples in Examples 4 to 6, as in Example 3.

5% mass reduction temperature [1] [°C]	compatibility of resin and additive [2]	Compound
294	–	CCN(CC)C(=O)CCC1(CCC(=O)N(CC)CC)c2ccccc2-c2ccccc21 [DEAA-FL, 9,9-bis[2-(N,N-diethylcarbamoyl)ethyl]fluorene]
257	–	CC(C)NC(=O)CCC1(CCC(=O)NC(C)C)c2ccccc2-c2ccccc21 [NIPAM-FL, 9,9-bis[2-(N-isopropylcarbamoyl)ethyl]fluorene]
320	compatible with the resin	NC(=O)CCC1(CCC(N)=O)c2ccccc2-c2ccccc21 [AAD-FL, 9,9-bis(2-carbamoylethyl)fluorene]
318	–	CN(C)C(=O)CCC1(CCC(=O)N(C)C)c2ccccc2-c2ccccc21 [DMAA-FL, 9,9-bis[2-(N,N-dimethylcarbamoyl)ethyl]fluorene]
